Holding throughout (assay type): cell-based
The subject of assay [1] is S. aureus ATCC 13709. The experiment in a line: MIC, S. aureus ATCC 13709 (Alamar Blue broth microdilution). As to conditions: for MIC: Staphylococcus aureus.
Assay [2] deals with S. pneumoniae ATCC 51916. The experiment in a line: MIC, S. pneumoniae ATCC 51916.
Assay [3] relates to E. coli ATCC 25922. The experiment in a line: MIC, E. coli ATCC 25922. To be noted: for MIC: Escherichia coli.
The test system of assay [4] is P. aeruginosa ATCC 15692. The experiment in a line: MIC, P. aeruginosa ATCC 15692.
For assay [5], the system named is A. baumannii ATCC 19606. The experiment in a line: MIC, A. baumannii ATCC 19606. To be noted: strain not given.
Assay [6] has as its system K. pneumoniae ATCC 700603. Briefly: MIC, K. pneumoniae ATCC 700603. As to conditions: for MIC Kpn: Kpn = K. pneumoniae.
In assay [7] the test system is Y. pestis CO92 pgm-. The experiment in a line: microbe, parasite or virus in culture. As to conditions: for MIC Yp: Yp = Y. pestis.
Assay [8] relates to B. thailandensis ATCC E264. The experiment in a line: microbe, parasite or virus in culture.
Assay [9] relates to F. tularensis holarctica LVS. Briefly: microbe, parasite or virus in culture. As to conditions: for MIC Ft: Ft = F. tularensis, strain not given.
[10] abbreviates: S. aureus, Alamar Blue read after overnight incubation at 35° C.
Setting [11] is: E. coli, Alamar Blue read after overnight incubation at 35° C.

Consider eleven compounds from patent US10858360B2, “Tricyclic gyrase inhibitors” (priority 2011, dated 2020).

Converted amounts (≈) assume the structure as drawn. Where only a bound is given, the exact number is not on record here.

In the case of `CNc1cc(F)cc2c1[nH]c1nc(Oc3cnc(C)nc3)nc(N3CCC4(CC4N)C3)c12` (stereo not drawn) [4.066], the MIC was not above 0.5 µg/mL in assay [1] (ATCC13709, S. aureus, Alamar Blue read after overnight incubation at 35° C.); not above 0.5 µg/mL in [1] (ATCC13709, Sa = S. aureus); not above 0.5 µg/mL in [2] (Streptococcus pneumoniae, ATCC51916, Spn = S. pneumoniae); not above 0.5 µg/mL in assay [3] (ATCC25922, E. coli, Alamar Blue read after overnight incubation at 35° C.); not above 0.5 µg/mL in assay [3] (ATCC25922, Ec = E. coli, strain not given); 2 µg/mL (≈ 4.6 µM) in assay [4] (Pseudomonas aeruginosa, ATCC15692, Pa = P. aeruginosa). Further, the MIC in [5] (Acinetobacter baumannii, ATCC19606, Ab = A. baumannii) is not above 0.5 µg/mL; in assay [6] (Klebsiella pneumoniae, ATCC700603, read-out: MIC Kpn), 2 µg/mL (≈ 4.6 µM); in [7] (Yersinia pestis, CO92PGM, read-out: MIC Yp) it was not above 0.5 µg/mL; in assay [8] (Burkholderia thailandensis, ATCCE264, read-out: MIC Bt), not above 0.5 µg/mL; in [9] (Francisella tularensis, read-out: MIC Ft), 1 µg/mL (≈ 2.3 µM).

For `CNc1cc(F)cc2c1[nH]c1nc(Oc3cnc(C)nc3)nc(N3CC(N)C4(CC4)C3)c12` (stereo not drawn) [4.069], the “MIC Sa” value in assay [1] (Sa = S. aureus) was not above 0.5 µg/mL. In addition, in [2], the “MIC Spn” value is not above 0.5 µg/mL. In [3] (Ec = E. coli, strain not given), the “MIC Ec” value is not above 0.5 µg/mL. The “MIC Pa” value in assay [4] came to 4 µg/mL (≈ 9.21 µM). For the same compound, the “MIC Ab” value in assay [5] is not above 0.5 µg/mL. Also, in [6], the “MIC Kpn” value was found to be 2 µg/mL (≈ 4.6 µM). In [7], the “MIC Yp” value was not above 0.5 µg/mL. In addition, the “MIC Bt” value in [8] is not above 0.5 µg/mL. The “MIC Ft” value in assay [9] amounted to 2 µg/mL (≈ 4.6 µM).

Turning to `CNc1cc(F)cc2c1[nH]c1nc(Oc3cnc(C)nc3)nc(N3CC4C(N)C4C3)c12` (stereo not drawn) [4.073], the “MIC Sa” value in assay [1] (setting [10]) and in assay [1] (Sa = S. aureus) was not above 0.5 µg/mL throughout. Moreover, the “MIC Spn” value in [2] was not above 0.5 µg/mL. Further, the “MIC Ec” value in [3] (setting [11]) was not above 0.5 µg/mL; in assay [3] (Ec = E. coli, strain not given), not above 0.5 µg/mL. Further, the “MIC Pa” value in [4] was 4 µg/mL (≈ 9.51 µM). For the same compound, in assay [5], the “MIC Ab” value is not above 0.5 µg/mL. The “MIC Kpn” value in assay [6] was found to be 2 µg/mL (≈ 4.76 µM). In addition, in [7], the “MIC Yp” value is not above 0.5 µg/mL. Also, the “MIC Bt” value in assay [8] was not above 0.5 µg/mL. For the same compound, in assay [9], the “MIC Ft” value was 1 µg/mL (≈ 2.38 µM).

As to `CNc1cc(F)cc2c1[nH]c1nc(Oc3cnc(C)nc3)nc(N3CC4CCC(N)C4C3)c12` (stereo not drawn) [4.076], the “MIC Sa” value in assay [1] (setting [10]) and in assay [1] (Sa = S. aureus) was not above 0.5 µg/mL throughout. Besides, in [2], the “MIC Spn” value was not above 0.5 µg/mL. Further, the “MIC Ec” value was not above 0.5 µg/mL in [3] (setting [11]) and not above 0.5 µg/mL in assay [3] (Ec = E. coli, strain not given). For the same compound, the “MIC Pa” value in [4] came to 4 µg/mL (≈ 8.92 µM). Further, the “MIC Ab” value in assay [5] is not above 0.5 µg/mL. In assay [6], the “MIC Kpn” value worked out at 4 µg/mL (≈ 8.92 µM). Further, the “MIC Yp” value in [7] was not above 0.5 µg/mL. Also, in [8], the “MIC Bt” value came to 1 µg/mL (≈ 2.23 µM). Further, in assay [9], the “MIC Ft” value was determined as 2 µg/mL (≈ 4.46 µM).

Turning to `CNc1cc(F)cc2c1[nH]c1nc(Oc3cnc(C)nc3)nc(N3CC4CCCNC4C3)c12` (stereo not drawn) [4.079], the “MIC Sa” value in assay [1] (setting [10]) and in [1] (Sa = S. aureus) was not above 0.5 µg/mL in each case. In addition, the “MIC Spn” value in assay [2] is not above 0.5 µg/mL. Further, the “MIC Ec” value in assay [3] (setting [11]) was not above 0.5 µg/mL; in assay [3] (Ec = E. coli, strain not given), not above 0.5 µg/mL. Besides, in assay [4], the “MIC Pa” value came to 4 µg/mL (≈ 8.92 µM). For the same compound, the “MIC Ab” value in assay [5] was not above 0.5 µg/mL. In addition, the “MIC Kpn” value in assay [6] was 8 µg/mL (≈ 17.8 µM). Also, the “MIC Yp” value in assay [7] was not above 0.5 µg/mL. For the same compound, the “MIC Bt” value in assay [8] was found to be 1 µg/mL (≈ 2.23 µM). In addition, the “MIC Ft” value in assay [9] is 4 µg/mL (≈ 8.92 µM).

Take `CNc1cc(F)cc2c1[nH]c1nc(Oc3cnc(C)nc3)nc(N3CC4CC(N)C4C3)c12` (stereo not drawn) [4.084]: the “MIC Sa” value in [1] (setting [10]) and in [1] (Sa = S. aureus) was not above 0.5 µg/mL in each case. Besides, the “MIC Spn” value in assay [2] is not above 0.5 µg/mL. The “MIC Ec” value is not above 0.5 µg/mL in assay [3] (setting [11]) and not above 0.5 µg/mL in [3] (Ec = E. coli, strain not given). For the same compound, the “MIC Pa” value in assay [4] is 1 µg/mL (≈ 2.3 µM). Also, in assay [5], the “MIC Ab” value was not above 0.5 µg/mL. For the same compound, in [6], the “MIC Kpn” value worked out at 4 µg/mL (≈ 9.21 µM). Besides, the “MIC Yp” value in assay [7] was not above 0.5 µg/mL. Further, the “MIC Bt” value in [8] was not above 0.5 µg/mL. Moreover, the “MIC Ft” value in assay [9] was not above 0.5 µg/mL.

`CNc1cc(F)cc2c1[nH]c1nc(Oc3cnc(C)nc3)nc(N3C[C@H]4CCN[C@H]4C3)c12` [4.103]: the “MIC Sa” value in [1] (setting [10]) and in assay [1] (Sa = S. aureus) was not above 0.5 µg/mL throughout. For the same compound, in assay [2], the “MIC Spn” value is not above 0.5 µg/mL. The “MIC Ec” value was not above 0.5 µg/mL in assay [3] (setting [11]) and not above 0.5 µg/mL in [3] (Ec = E. coli, strain not given). For the same compound, the “MIC Pa” value in assay [4] worked out at 2 µg/mL (≈ 4.6 µM). In addition, the “MIC Ab” value in assay [5] was not above 0.5 µg/mL. For the same compound, the “MIC Kpn” value in assay [6] is 2 µg/mL (≈ 4.6 µM). In addition, the “MIC Yp” value in assay [7] is not above 0.5 µg/mL. The “MIC Bt” value in assay [8] is not above 0.5 µg/mL. In addition, the “MIC Ft” value in assay [9] is 1 µg/mL (≈ 2.3 µM).

In the case of `CNc1cc(F)cc2c1[nH]c1nc(Oc3cnc(C)nc3)nc(N3CC4(CCC4N)C3)c12` (stereo not drawn) [4.105], in assay [1] (Sa = S. aureus), the “MIC Sa” value is not above 0.5 µg/mL. For the same compound, in [2], the “MIC Spn” value is not above 0.5 µg/mL. Moreover, the “MIC Ec” value in [3] (Ec = E. coli, strain not given) was not above 0.5 µg/mL. Besides, the “MIC Pa” value in [4] came out at 1 µg/mL (≈ 2.3 µM). Besides, the “MIC Ab” value in [5] is not above 0.5 µg/mL. Moreover, the “MIC Kpn” value in assay [6] came to 2 µg/mL (≈ 4.6 µM). The “MIC Yp” value in [7] was not above 0.5 µg/mL. For the same compound, the “MIC Bt” value in assay [8] was not above 0.5 µg/mL. Besides, the “MIC Ft” value in assay [9] was 1 µg/mL (≈ 2.3 µM).

In the case of `CNc1cc(F)cc2c1[nH]c1nc(Oc3cnc(C)nc3)nc(N3CCC4(CCC4N)C3)c12` (stereo not drawn) [4.117], the “MIC Sa” value in assay [1] (setting [10]) and in assay [1] (Sa = S. aureus) was not above 0.5 µg/mL throughout. Moreover, the “MIC Spn” value in assay [2] is not above 0.5 µg/mL. Besides, the “MIC Ec” value was not above 0.5 µg/mL in [3] (setting [11]) and not above 0.5 µg/mL in assay [3] (Ec = E. coli, strain not given). Also, the “MIC Pa” value in assay [4] is 1 µg/mL (≈ 2.23 µM). Moreover, in assay [5], the “MIC Ab” value is not above 0.5 µg/mL. For the same compound, the “MIC Kpn” value in assay [6] stood at 2 µg/mL (≈ 4.46 µM). The “MIC Yp” value in [7] was not above 0.5 µg/mL. The “MIC Bt” value in assay [8] was not above 0.5 µg/mL. In assay [9], the “MIC Ft” value was found to be 1 µg/mL (≈ 2.23 µM).

For the compound `CNc1cc(F)cc2c1[nH]c1nc(Oc3cnc(C)nc3)nc(N3CC4CC3C[C@@H]4N)c12` (stereo partly drawn) [4.131], the “MIC Sa” value in assay [1] (setting [10]) and in assay [1] (Sa = S. aureus) was not above 0.5 µg/mL throughout. Besides, in assay [2], the “MIC Spn” value is not above 0.5 µg/mL. In addition, the “MIC Ec” value was not above 0.5 µg/mL in assay [3] (setting [11]) and not above 0.5 µg/mL in [3] (Ec = E. coli, strain not given). The “MIC Pa” value in assay [4] stood at 1 µg/mL (≈ 2.3 µM). In addition, the “MIC Ab” value in assay [5] was not above 0.5 µg/mL. Also, the “MIC Kpn” value in [6] is 2 µg/mL (≈ 4.6 µM). For the same compound, the “MIC Yp” value in [7] was not above 0.5 µg/mL. The “MIC Bt” value in assay [8] was not above 0.5 µg/mL. Besides, in assay [9], the “MIC Ft” value is not above 0.5 µg/mL.

In the case of `CNc1cc(F)cc2c1[nH]c1nc(Oc3ccc4cncnc4c3)nc(N3CC4CC(N)C4C3)c12` (stereo not drawn) [4.365], the “MIC Sa” value in assay [1] (setting [10]) and in [1] (Sa = S. aureus) was not above 0.5 µg/mL in each case. Besides, in assay [2], the “MIC Spn” value is not above 0.5 µg/mL. Besides, the “MIC Ec” value in [3] (setting [11]) was not above 0.5 µg/mL; in assay [3] (Ec = E. coli, strain not given), not above 0.5 µg/mL. Moreover, the “MIC Pa” value in [4] turned out to be 1 µg/mL (≈ 2.13 µM). Moreover, the “MIC Ab” value in [5] is not above 0.5 µg/mL. The “MIC Kpn” value in assay [6] stood at 4 µg/mL (≈ 8.5 µM). For the same compound, in assay [7], the “MIC Yp” value was not above 0.5 µg/mL. Besides, in assay [8], the “MIC Bt” value is not above 0.5 µg/mL. In [9], the “MIC Ft” value was found to be 1 µg/mL (≈ 2.13 µM).
